Measured values as given in patent US20100234390A1, “NOVEL COMPOUND AND THEIR USE” (priority 2007, published 2010).

Key:
Test in all cases: Agar dilution MIC
Details in all cases: 35° C., 16-20 hours
S. aureus ATCC 29213 = type: cell-based, Staphylococcus aureus
Experimental: (§1) Briefly, the compounds of invention were weighed, dissolved in dimethyl sulfoxide, serially two fold diluted in the same solvent and then incorporated into molten Mueller Hinton Agar (MHA) in a petridish just before solidification, with each petridish containing a different concentration of a compound.
(§2) The bacterial inoculum was prepared by picking 3 to 5 well isolated bacterial colonies with the same morphological appearance from an 18-24 hours old culture with an inoculating loop, transferring the growth to a tube containing 3 mL of normal saline and adjusting the turbidity of the saline suspension to 0.5 Mc Farland Turbidity Standard equivalent to a bacterial population of 1.5×10^8 colony forming units (CFU) per mL of suspension. The suspension was diluted 1:10 in saline (i.e. 0.5 mL suspension 4.5 mL saline) to get a bacterial population of 1.5×10^7 CFU/mL as inoculum.
(§3) The inoculated petridishes were incubated at 35° C. in an ambient atmosphere for 16-20 hours.

S. aureus ATCC 43300 = type: cell-based, Staphylococcus aureus
Experimental: as §1, §2, §3

S. aureus MRO 00013 = type: cell-based, Staphylococcus aureus
Experimental: as §1, §2, §3

S. aureus MRO 0001 = type: cell-based, Staphylococcus aureus
Experimental: as §1, §2, §3

S. aureus MRO 00030 = type: cell-based, Staphylococcus aureus
Experimental: as §1, §2, §3

S. aureus MRO 0003 = type: cell-based, Staphylococcus aureus
Experimental: as §1, §2, §3

S. aureus MRO 00048 = type: cell-based, Staphylococcus aureus
Experimental: as §1, §2, §3

S. aureus MRO 00055 = type: cell-based, Staphylococcus aureus
Experimental: as §1, §2, §3

S. aureus MRO 00059 = type: cell-based, Staphylococcus aureus
Experimental: as §1, §2, §3

S. aureus MRO 002053 = type: cell-based, Staphylococcus aureus
Experimental: as §1, §2, §3

[1] = test system: S. epidermidis MRO 002046; type: cell-based
Experimental: as §1, §2, §3

S. epidermidis MRO 02002 = type: cell-based
Experimental: as §1, §2, §3

S. epidermidis MRO 02045 = type: cell-based
Experimental: as §1, §2, §3

S. epidermidis MRO 02095 = type: cell-based
Experimental: as §1, §2, §3

[2] = test system: S. haemolyticus MRO 02064; type: cell-based
Experimental: as §1, §2, §3

[3] = test system: S. saprophyticus MRO 02003; type: cell-based
Experimental: as §1, §2, §3

E. faecalis ATCC 29212 = type: cell-based, Enterococcus faecalis
Experimental: as §1, §2, §3

E. faecalis ATCC 51299 = type: cell-based, Enterococcus faecalis
Experimental: as §1, §2, §3

E. faecalis MRO 04035 = type: cell-based, Enterococcus faecalis
Experimental: as §1, §2, §3

E. faecalis MRO 04050 = type: cell-based, Enterococcus faecalis
Experimental: as §1, §2, §3

E. faecalis MRO 04205 = type: cell-based, Enterococcus faecalis
Experimental: as §1, §2, §3

E. faecium ATCC 700221 = type: cell-based, Enterococcus faecium
Experimental: as §1, §2, §3

E. faecium MRO 04037 = type: cell-based, Enterococcus faecium
Experimental: as §1, §2, §3

E. faecium MRO 04038 = type: cell-based, Enterococcus faecium
Experimental: as §1, §2, §3

E. faecium MRO 04198 = type: cell-based, Enterococcus faecium
Experimental: as §1, §2, §3

[4] = test system: M. catarrhalis ATCC 43617; type: cell-based, Moraxella catarrhalis
Experimental: as §1, §2, §3

[5] = test system: M. catarrhalis ATCC 43627; type: cell-based, Moraxella catarrhalis
Experimental: as §1, §2, §3

[6] = test system: M. catarrhalis ATCC 43628; type: cell-based, Moraxella catarrhalis
Experimental: as §1, §2, §3

Row | SMILES | Antimicrobial Screening (MIC) (S. aureus ATCC 29213) | Antimicrobial Screening (MIC) (S. aureus ATCC 43300) | Antimicrobial Screening (MIC) (S. aureus MRO 00013) | Antimicrobial Screening (MIC) (S. aureus MRO 0001) | Antimicrobial Screening (MIC) (S. aureus MRO 00030) | Antimicrobial Screening (MIC) (S. aureus MRO 0003) | Antimicrobial Screening (MIC) (S. aureus MRO 00048) | Antimicrobial Screening (MIC) (S. aureus MRO 00055) | Antimicrobial Screening (MIC) (S. aureus MRO 00059) | Antimicrobial Screening (MIC) (S. aureus MRO 002053) | Antimicrobial Screening (MIC) [1] | Antimicrobial Screening (MIC) (S. epidermidis MRO 02002) | Antimicrobial Screening (MIC) (S. epidermidis MRO 02045) | Antimicrobial Screening (MIC) (S. epidermidis MRO 02095) | Antimicrobial Screening (MIC) [2] | Antimicrobial Screening (MIC) [3] | Antimicrobial Screening (MIC) (E. faecalis ATCC 29212) | Antimicrobial Screening (MIC) (E. faecalis ATCC 51299) | Antimicrobial Screening (MIC) (E. faecalis MRO 04035) | Antimicrobial Screening (MIC) (E. faecalis MRO 04050) | further results
1 | COC(=S)NC[C@H]1CN(c2ccc(N3CCN(C(=O)CNS(C)(=O)=O)CC3)c(F)c2)C(=O)O1 [Example 43] | 0.5 µg/mL | 0.5 µg/mL | 0.5 µg/mL | 0.25 µg/mL | 0.5 µg/mL | 0.5 µg/mL | 0.5 µg/mL | 0.5 µg/mL | 0.5 µg/mL | 0.5 µg/mL | 0.25 µg/mL | 0.5 µg/mL | 0.5 µg/mL | 0.5 µg/mL | 0.5 µg/mL | 0.5 µg/mL | 0.25 µg/mL | 0.25 µg/mL | 0.25 µg/mL | 0.25 µg/mL | Antimicrobial Screening (MIC) (E. faecalis MRO 04205): 0.25 µg/mL; Antimicrobial Screening (MIC) (E. faecium ATCC 700221): 0.25 µg/mL; Antimicrobial Screening (MIC) (E. faecium MRO 04037): 0.25 µg/mL; Antimicrobial Screening (MIC) (E. faecium MRO 04038): 0.25 µg/mL; Antimicrobial Screening (MIC) (E. faecium MRO 04198): 0.5 µg/mL; Antimicrobial Screening (MIC) [4]: 1 µg/mL; Antimicrobial Screening (MIC) [5]: 2 µg/mL; Antimicrobial Screening (MIC) [6]: 2 µg/mL
2 | COC(=S)NC[C@H]1CN(c2ccc(N3CCN(C(=O)c4ccno4)CC3)c(F)c2)C(=O)O1 [Example 44, (S)—O-M ethyl(3-(3-fluoro-4-(4-(isoxazole-5-carbonyl)piperazin-1-yl)phenyl)-2-oxooxazolidin-5-yl)methylcarbamothioate] | 0.5 µg/mL | 0.5 µg/mL | 0.5 µg/mL | 0.5 µg/mL | 0.5 µg/mL | 0.5 µg/mL | 0.25 µg/mL | 0.5 µg/mL | 0.5 µg/mL | 0.5 µg/mL | 0.25 µg/mL | 0.5 µg/mL | 0.5 µg/mL | 0.25 µg/mL | 0.25 µg/mL | 0.5 µg/mL | 0.25 µg/mL | 0.25 µg/mL | 0.25 µg/mL | 0.5 µg/mL | Antimicrobial Screening (MIC) (E. faecalis MRO 04205): 0.25 µg/mL; Antimicrobial Screening (MIC) (E. faecium ATCC 700221): 0.25 µg/mL; Antimicrobial Screening (MIC) (E. faecium MRO 04037): 0.25 µg/mL; Antimicrobial Screening (MIC) (E. faecium MRO 04038): 0.25 µg/mL; Antimicrobial Screening (MIC) (E. faecium MRO 04198): 0.25 µg/mL; Antimicrobial Screening (MIC) [4]: 1 µg/mL; Antimicrobial Screening (MIC) [5]: 2 µg/mL; Antimicrobial Screening (MIC) [6]: 1 µg/mL
